This note sets out measurements from PubChem BioAssay AID2305 (GlaxoSmithKline (GSK), 2010).

SMILES strings stand for the structures. pIC50: −log10 of the molar value.

This experiment relates to P. falciparum 3D7 growth, pLDH absorbance. In words: P. falciparum 3D7 growth inhibition, dose response, strain 3D7 (AID 2305).

For `Cc1cnc(NCCc2ccc(F)cc2)nc1N[C@@H](CC(C)C)C(=O)Nc1ccccc1`, the pIC50 is 6.01.

The molecule `Cc1nc2ccc3ccc(CNc4ccc5c(c4)CN([C@H](CCC(=O)O)C(=O)O)C5=O)cc3c2c(=O)[nH]1` gave a pIC50 of 6.07.

As to `CS(=O)(=O)Nc1cccc(-c2cnc3[nH]cc(-c4ccc(CN)cc4)c3c2)c1`, the pIC50 is 6.00.

Take `Cc1ccc(NC(=O)NC2CCN(c3ccnc4ccccc34)C2)cc1` (stereo not drawn): the pIC50 is 6.15.

`Cn1nc(-c2ccccc2F)c2cc(C(=O)NC3CCN(Cc4ccccc4)CC3)sc21` had a pIC50 of 6.10.

Regarding `COC(=O)CNC(c1ccccc1)c1cc(Br)ccc1NC(=O)c1ccccc1Br` (stereo not drawn), the pIC50 was 6.00.

`C[C@@H]1CN(CCCn2c3ccccc3c3ccc(C(=O)CCCN(C)C)cc32)C[C@H](C)N1` had a pIC50 of 6.09.

For the molecule `Cn1c(=O)c2nc(-c3ccc(Cl)cc3)nnc2n(CCCC#N)c1=O`, the pIC50 is 6.82.

Molecule `Oc1ccccc1CNCC(O)c1cccc(C(F)(F)F)c1` (stereo not drawn) showed a pIC50 of 6.28. Compared with the last molecule, the pIC50 is 0.54 log units lower.

The molecule `COc1cc(NC2CCCC(NCc3cn(S(=O)(=O)c4ccccc4)c4ccccc34)C2)nc2ccccc12` (stereo not drawn) showed a pIC50 of 6.60.

As to `COc1ccccc1C1CCN(C2CCC(NC(=O)/C=C/c3ccc4c(c3)OC(F)(F)O4)CC2)CC1` (stereo not drawn), the negative-log IC50 (pIC50) was 6.08.

`CN(C)CCOc1cc(NC(=O)Nc2cccc3c(-c4ccncc4)cccc23)ccc1I` showed a pIC50 of 6.14.

Regarding `O=C(NC1CCCCN(Cc2ccc3c(c2)OCCO3)C1)c1cc(-c2ccccc2F)cs1` (stereo not drawn), the pIC50 is 5.98.

`CC(C)c1ncc(-c2ccncc2)c(C2CCC(CNC(=O)c3ccncc3)CC2)n1` (stereo not drawn) showed a pIC50 of 5.87.

Consider `CC(Cc1ccc(CSC(C)C)cc1)NCC(O)c1cccc(Cl)c1` (stereo not drawn), for which the pIC50 was 6.22.

For `COc1ccc2ncc(F)c([C@@H](O)CN3CCC(NCc4cc5c(cn4)OCCO5)CC3)c2c1`, the pIC50 was 6.85. This pIC50 is 0.63 log units higher than that of the molecule before.

The molecule `O=C(NC1CCCCN(Cc2ccccc2O)C1)c1cc(F)cc(F)c1` (stereo not drawn) showed a pIC50 of 5.93.

The molecule `Cc1nc(C(=O)N2CCCC[C@H]2CNC(=O)c2ccc(-c3ccc(N4CCCC4=O)cc3C)cc2)c(-c2ccc(F)cc2)s1` gave a pIC50 of 6.34. This pIC50 is 0.41 log units higher than that of the molecule before.

In turn, `COc1cccc(-c2cccc(NC(=O)C3CCN(Cc4ccc(O)cc4)CC3)c2)c1` gave a pIC50 of 5.99.

In the case of `CCOC(=O)c1cc2c(CCN3C(=O)c4ccccc4C3=O)cn(C)c2cc1-c1ccncc1`, the negative-log IC50 (pIC50) was 6.24.

For the molecule `CC(=O)Nc1cc(C(=O)Nc2cccc(-c3cccc(-c4nc5ccc(C(F)(F)F)cc5[nH]4)c3)c2)ccc1C`, the pIC50 is 6.66. Compared with the last molecule, the pIC50 is 0.42 log units higher.

Molecule `Cc1ccc(C(=O)Nc2ccc(Nc3ccnc4cc(-c5ccccn5)ccc34)cc2O)cc1` gave a negative logarithm of the IC50 (pIC50) of 6.96.

For the molecule `Cc1ccccc1Oc1nc2ccccc2nc1SCC(=O)NC(C)C`, the negative logarithm of the IC50 (pIC50) is 6.70.

The molecule `CC(C)c1sc(-c2ccc(C(C)(C)C)cc2)nc1C(=O)NCCCN1CCCC1=O` had a pIC50 of 6.17.

Molecule `Cc1cc(=O)c(C2CCC(c3ccc(Cl)cc3)CC2)c(C)[nH]1` (stereo not drawn) gave a pIC50 of 6.13.

`O=C(Nc1ccc2c(c1)CNCC2)c1ccc(-c2ccc(Cl)cc2)cc1` showed a pIC50 of 6.18.

Turning to `Fc1ccc2nc(-c3ccc(-c4cccc(CN5CCC(CCN6CCCCC6)CC5)c4)cc3)[nH]c2c1`, the pIC50 was 6.85.

In the case of `COc1cccc(Nc2nc(Nc3cccc(C#N)c3)cc(C(F)(F)F)n2)c1`, the pIC50 was 6.08. Compared with the last molecule, the pIC50 is 0.77 log units lower.

The molecule `Cc1cccc2[nH]c(-c3cccc(-c4ccc(NC(=O)NCc5cccc(F)c5)cc4)c3)nc12` had a pIC50 of 6.62.

The molecule `CC(COc1ccc2c(c1)OC(C)(C)CC2c1ccccc1)NCC(O)c1cccc(Cl)c1` (stereo not drawn) had a pIC50 of 6.12.

`O=C(Cc1cnc[nH]1)Nc1cccc(-c2ccc(-c3nc4ccc(C(F)(F)F)cc4[nH]3)s2)c1` gave a pIC50 of 6.11.

Turning to `CC(C)N1CCC(N(Cc2ccc(-c3ccc(C(F)(F)F)cc3)cc2)C(=O)CCCn2c(CCc3cccc(F)c3F)nc(=O)c3ccccc32)CC1`, the pIC50 is 6.01. The pIC50 values of the last two molecules are within 0.2 log units of each other.

In turn, `Cc1ccccc1C1CCN(C2CCC(NC(=O)/C=C/c3cccc(F)c3)CC2)CC1` (stereo not drawn) gave a negative logarithm of the IC50 (pIC50) of 5.92.

In turn, `O=C(/C=C/c1ccc(Cl)c(Cl)c1)NCCCCCN1CCCN(C(=O)Nc2ccc(Cl)cc2)CC1` gave a negative-log IC50 (pIC50) of 6.13.

Turning to `Cc1ccc2c(NN=CC=Cc3ccccc3)cc(C)nc2c1`, the pIC50 is 5.95.

With `COc1ccc(C2CCN(CCN3CCC(NC(=O)c4cccc(-c5ccncc5)c4)CC3)CC2)c(OC)c1`, the negative-log IC50 (pIC50) was 6.10.

The molecule `COC(=O)C(Cc1ccccc1)NC(=O)NC1CCN(c2ccnc(Nc3ccc(F)cc3)n2)C1` (stereo not drawn) showed a pIC50 of 5.96.

Take `O=C(CCCCCNC(=O)c1ccc(O)c(-c2ccc(Cl)c(Cl)c2)c1)NCc1cccc(C(F)(F)F)c1`: the pIC50 was 6.14.

Molecule `N#Cc1ccc(CN2CCC(NC(=O)c3ccc(-c4nnc(-c5cccc6ccccc56)o4)cc3)CC2)cc1` showed a pIC50 of 6.17. This pIC50 and that of the molecule before are within 0.2 log units of each other.

Molecule `CCc1cn2c3c(cc(C(=O)N[C@@H](Cc4ccccc4)[C@H](O)CNC(C)(C)CCCC(C)C)cc13)N(C)S(=O)(=O)C2` had a pIC50 of 6.62.

Take `COc1ccc(CCN(C)CCCOc2ccc(NC(=O)c3cccc4c(=O)c5ccccc5[nH]c34)cc2)cc1OC`: the pIC50 is 6.04.

Take `CN(C)Cc1ccc(-c2ccc(NC(=O)c3ccc4c(=O)n(Cc5ccccc5)cnc4c3)cc2)cc1`: the pIC50 is 6.19.

Molecule `CCNc1cc(C(=O)N[C@@H](Cc2ccccc2)[C@H](O)CNC2(CC)CC2)cc(N2CCCCS2(=O)=O)c1` showed a pIC50 of 5.79. Compared with the last molecule, the pIC50 is 0.40 log units lower.

In general, pIC50 refers to the IC50 on a negative log10 scale, so that one unit is a factor of ten. A high value points to a small IC50.
